This is an account of results in patent US20260151383A1, “HETEROCYCLIC COMPOUNDS AND USES THEREOF” (KayoThera Inc., priority 2022, published 2026).

Common to all, as to assay type: biochemical
Common to all, as to details: recombinant enzyme, 20° C., activity level classes

The target in one assay is T1, hALDH1a2 (Homo sapiens, UniProt O94788).
T1 construct: made in house; host or cells: E. coli BL21-DE3
T1 sequence (O94788 1-518): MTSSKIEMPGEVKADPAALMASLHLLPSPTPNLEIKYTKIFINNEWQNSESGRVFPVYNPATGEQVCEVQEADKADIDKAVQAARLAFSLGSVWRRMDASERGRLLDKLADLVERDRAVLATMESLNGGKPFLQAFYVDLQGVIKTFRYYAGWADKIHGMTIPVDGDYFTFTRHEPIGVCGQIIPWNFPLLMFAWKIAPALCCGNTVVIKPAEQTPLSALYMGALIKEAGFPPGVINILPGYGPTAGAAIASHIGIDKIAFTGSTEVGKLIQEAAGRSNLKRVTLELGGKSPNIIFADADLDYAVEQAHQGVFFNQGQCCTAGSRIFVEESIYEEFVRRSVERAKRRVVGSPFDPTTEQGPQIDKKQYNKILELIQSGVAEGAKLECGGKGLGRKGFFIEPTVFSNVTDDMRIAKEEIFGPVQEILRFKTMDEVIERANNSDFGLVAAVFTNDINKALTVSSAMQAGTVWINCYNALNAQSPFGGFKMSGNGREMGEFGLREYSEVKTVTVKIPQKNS
The experiment in a line: Aldh1a2 enzyme inhibition assay (resorufin fluorescence), human enzyme. From the text: (§1) Recombinant enzyme and inhibitor added immediately before assay. Reaction rate measured by resorufln fluorescence.

The next assay deals with T2, mALDH1a3 (Mus musculus, UniProt Q9JHW9).
T2 construct: made in house; host or cells: E. coli BL21-DE3
T2 sequence (Q9JHW9 1-512): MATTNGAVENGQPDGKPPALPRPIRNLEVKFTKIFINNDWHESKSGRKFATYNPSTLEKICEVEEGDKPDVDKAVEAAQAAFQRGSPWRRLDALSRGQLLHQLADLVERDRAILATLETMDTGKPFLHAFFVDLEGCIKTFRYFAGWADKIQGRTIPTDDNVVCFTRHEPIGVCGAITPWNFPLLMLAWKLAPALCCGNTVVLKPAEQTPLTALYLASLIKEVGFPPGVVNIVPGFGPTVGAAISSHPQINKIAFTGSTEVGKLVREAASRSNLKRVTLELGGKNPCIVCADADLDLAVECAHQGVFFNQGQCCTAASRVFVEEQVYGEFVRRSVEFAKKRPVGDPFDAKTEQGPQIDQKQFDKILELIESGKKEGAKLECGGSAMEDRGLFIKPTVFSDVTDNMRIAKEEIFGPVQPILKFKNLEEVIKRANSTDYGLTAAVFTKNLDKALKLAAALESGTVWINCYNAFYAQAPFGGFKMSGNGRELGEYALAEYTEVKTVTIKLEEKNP
Kind of assay: Aldh1a3 enzyme inhibition assay (resorufin fluorescence), mouse enzyme. An excerpt:
Recombinant enzyme and inhibitor added immediately before assay. Reaction rate measured by resorufin fluorescence.

For the next assay, the target named is T3, mALDH1a2 (Mus musculus, UniProt Q62148).
T3 construct: made in house; host or cells: E. coli BL21-DE3
T3 sequence (Q62148 1-518): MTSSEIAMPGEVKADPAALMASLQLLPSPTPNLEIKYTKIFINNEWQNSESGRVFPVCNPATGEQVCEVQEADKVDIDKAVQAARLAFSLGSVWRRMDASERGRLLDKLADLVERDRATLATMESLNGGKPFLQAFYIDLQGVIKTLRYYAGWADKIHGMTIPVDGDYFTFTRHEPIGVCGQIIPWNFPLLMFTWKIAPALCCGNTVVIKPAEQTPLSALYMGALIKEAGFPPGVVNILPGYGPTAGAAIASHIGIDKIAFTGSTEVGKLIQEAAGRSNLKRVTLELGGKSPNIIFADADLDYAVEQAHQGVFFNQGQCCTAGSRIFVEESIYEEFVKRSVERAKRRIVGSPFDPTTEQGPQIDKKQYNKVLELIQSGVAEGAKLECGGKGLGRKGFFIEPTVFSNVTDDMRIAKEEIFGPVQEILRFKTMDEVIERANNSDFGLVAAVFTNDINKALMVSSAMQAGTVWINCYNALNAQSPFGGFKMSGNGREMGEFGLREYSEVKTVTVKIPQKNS
Kind of assay: Aldh1a2 enzyme inhibition assay (resorufin fluorescence), mouse enzyme.
Excerpt: as §1

For another assay, the target named is T4, hALDH1a3 (Homo sapiens, UniProt P47895).
T4 construct: made in house; host or cells: E. coli BL21-DE3
T4 sequence (P47895 1-512): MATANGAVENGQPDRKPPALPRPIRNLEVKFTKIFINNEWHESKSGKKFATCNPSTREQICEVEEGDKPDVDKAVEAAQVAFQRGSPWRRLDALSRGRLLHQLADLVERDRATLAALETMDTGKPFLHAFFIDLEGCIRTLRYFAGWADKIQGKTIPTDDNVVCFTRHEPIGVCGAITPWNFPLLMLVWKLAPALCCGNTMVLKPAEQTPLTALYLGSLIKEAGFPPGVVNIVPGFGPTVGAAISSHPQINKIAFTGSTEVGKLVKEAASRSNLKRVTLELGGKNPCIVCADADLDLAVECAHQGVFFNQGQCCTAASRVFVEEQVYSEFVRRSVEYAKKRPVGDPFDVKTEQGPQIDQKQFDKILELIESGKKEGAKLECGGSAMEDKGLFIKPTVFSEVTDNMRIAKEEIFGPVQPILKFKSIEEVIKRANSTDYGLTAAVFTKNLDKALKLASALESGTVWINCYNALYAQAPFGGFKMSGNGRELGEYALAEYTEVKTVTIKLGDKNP
The experiment in a line: Aldh1a3 enzyme inhibition assay (resorufin fluorescence), human enzyme.

Take `CCc1sncc1C(=O)Nc1cc(C)c2c(c1)C1CC1C(=O)N2` (centres unmarked) [Compound 52]: the IC50 (commonly the concentration needed to halve the response being measured) on hALDH1a2 was less than 100 nM; at mALDH1a3, less than 100 nM; at mALDH1a2 it was 100 to 250 nM; on hALDH1a3, 100 to 250 nM.
Regarding `Cc1cc(NC(=O)c2ocnc2CC(F)(F)F)cc2c1NC(=O)CC2` [Compound 56], the IC50 was 1000 to 5000 nM at hALDH1a2, 100 to 250 nM at mALDH1a3, 1000 to 5000 nM on mALDH1a2 and 250 to 1000 nM on hALDH1a3.
As to `CCc1ncoc1C(=O)Nc1cc(C)c2c(c1)CCC(=O)N2` [Compound 57], the IC50 is 1000 to 5000 nM on hALDH1a2, 100 to 250 nM on mALDH1a3, 1000 to 5000 nM on mALDH1a2 and 250 to 1000 nM on hALDH1a3.
As for `CCc1nc[nH]c1C(=O)Nc1cc(C)c2c(c1)CCC(=O)N2` [Compound 59], the IC50 at hALDH1a2 was 1000 to 5000 nM; at mALDH1a3, 250 to 1000 nM; on mALDH1a2 it was 1000 to 5000 nM; at hALDH1a3 it was 1000 to 5000 nM.
In the case of `CCc1ncoc1C(=O)Nc1cc(C)c2c(c1)C1CC1C(=O)N2` (centres unmarked) [Compound 60], the IC50 lay in the range of 250 to 1000 nM on hALDH1a2, 100 to 250 nM at mALDH1a3, 250 to 1000 nM on mALDH1a2 and 250 to 1000 nM on hALDH1a3.
As to `O=C(Nc1cc(F)c2c(c1)C1CC1C(=O)N2)c1ocnc1CC(F)(F)F` (centres unmarked) [Compound 61], the IC50 at hALDH1a2 lay within 250 to 1000 nM; at mALDH1a3 it was 250 to 1000 nM; on mALDH1a2, 250 to 1000 nM; at hALDH1a3, 100 to 250 nM.
Take `CCc1ncoc1C(=O)Nc1cc(F)c2c(c1)C1CC1C(=O)N2` (centres unmarked) [Compound 62]: the IC50 on hALDH1a2 is greater than 5000 nM; at mALDH1a3 it was 1000 to 5000 nM; at mALDH1a2 it was greater than 5000 nM; on hALDH1a3, 1000 to 5000 nM.
Turning to `Cc1cc(NC(=O)c2scnc2CC2CC2)cc2c1NC(=O)CC2` [Compound 63], the IC50 at hALDH1a2 is 100 to 250 nM; at mALDH1a3 it was less than 100 nM; on mALDH1a2, 250 to 1000 nM; at hALDH1a3 it was less than 100 nM.
Turning to `Cc1cc(NC(=O)c2scnc2CC(C)(C)C)cc2c1NC(=O)CC2` [Compound 64], the IC50 lay within 250 to 1000 nM at hALDH1a2, 1000 to 5000 nM at mALDH1a3, 1000 to 5000 nM at mALDH1a2 and 250 to 1000 nM on hALDH1a3.
On to `Cc1cc(NC(=O)c2scnc2CC(C)C)cc2c1NC(=O)CC2` [Compound 65], for which the IC50 at hALDH1a2 was in the range of 1000 to 5000 nM; at mALDH1a3 it was 250 to 1000 nM; at mALDH1a2 it was 1000 to 5000 nM; on hALDH1a3 it was 100 to 250 nM.
Consider `CCCc1ncsc1C(=O)Nc1cc(C)c2c(c1)CCC(=O)N2` [Compound 66], for which the IC50 at hALDH1a2 is 250 to 1000 nM; on mALDH1a3, 100 to 250 nM; at mALDH1a2, 250 to 1000 nM; on hALDH1a3 it was 100 to 250 nM.
As for `Cc1cc(NC(=O)c2scnc2C)cc2c1NC(=O)CC2` [Compound 67], the 50% inhibitory concentration (IC50) on hALDH1a2 lay in the range of 1000 to 5000 nM; at mALDH1a3, 250 to 1000 nM; on mALDH1a2 it was 1000 to 5000 nM; at hALDH1a3, 250 to 1000 nM.
`Cc1c(F)c(NC(=O)c2ncsc2CC(F)(F)F)cc2c1NC(=O)CC2` [Compound 72]: the IC50 on hALDH1a2 fell in the range of 100 to 250 nM; at mALDH1a3, 100 to 250 nM; at mALDH1a2, 250 to 1000 nM; on hALDH1a3, 100 to 250 nM.
Consider `Cc1c(Cl)c(NC(=O)c2ncsc2CC(F)(F)F)cc2c1NC(=O)CC2` [Compound 73], for which the IC50 on hALDH1a2 was 100 to 250 nM; at mALDH1a3 it was less than 100 nM; on mALDH1a2, less than 100 nM; at hALDH1a3, less than 100 nM.
`O=C1CCc2cc(NC(=O)c3ncsc3CC(F)(F)F)cc(Cl)c2N1` [Compound 75]: the IC50 on hALDH1a2 was 100 to 250 nM; at mALDH1a3 it was 100 to 250 nM; on mALDH1a2 it was 250 to 1000 nM; at hALDH1a3 it was less than 100 nM.
Consider `Cc1cc(NC(=O)c2scnc2C2CC2)cc2c1NC(=O)CC2` [Compound 77], for which the IC50 at hALDH1a2 lay within 250 to 1000 nM; on mALDH1a3 it was 100 to 250 nM; at mALDH1a2 it was 250 to 1000 nM; at hALDH1a3, 250 to 1000 nM.
As for `Cc1cc(NC(=O)c2ocnc2CC(F)(F)F)cc2c1NC(=O)C1CC21` (centres unmarked) [Compound 82], the IC50 at hALDH1a2, on mALDH1a3, on mALDH1a2 and at hALDH1a3 was 100 to 250 nM in each case.
